The source of these data is patent US9174997B2, “4-(4-cyano-2-thioaryl)dihydropyrimidinones and use thereof” (Bayer Intellectual Property GmbH, priority 2007, dated 2015).

Data set [1] concerns the target human neutrophil elastase (HNE) (Homo sapiens (Human), UniProt P08246). Kind of data set: In vitro HNE inhibition assay. The data set is classed as biochemical. As to conditions: HNE concentration of 80 pM; substrate MeOSuc-Ala-Ala-Pro-Val-AMC; 37° C. for 2 hours. On the procedure: B-1. In Vitro HNE Inhibition Assay
The potency of the compounds of the invention is ascertained in an in vitro inhibition assay. The HNE-mediated amidolytic cleavage of a suitable peptide substrate leads in this connection to an increase in the fluorescent light. The signal intensity of the fluorescent light is directly proportional to the enzyme activity.
Enzyme ([…]; from Serva, Heidelberg) and substrate (20 μM MeOSuc-Ala-Ala-Pro-Val-AMC; from Bachem, Weil am Rhein) are incubated in an assay volume of in total 50 μl of assay buffer (0.1 M HEPES pH 7.4, 0.5 M NaCl, 0.1% w/v BSA, 1% v/v DMSO) in a 384-well microtiter plate in the presence and absence of the test substance at 37° C. for 2 hours. […] The IC50 values are determined by plotting the intensity of the fluorescent light against the active substance concentration.

Another data set concerns rat hepatocytes. Kind of data set: Hepatocyte assay to determine the metabolic stability. Particulars: after incubation with rat hepatocytes. The data set is classed as in vitro ADME. On the procedure:
B-6. Hepatocyte Assay to Determine the Metabolic Stability
The metabolic stability of test compounds in the presence of hepatocytes is determined by incubating the compounds with low concentrations (preferably below or around 1 μM) and with low cell counts (preferably 1*10^6 cells/ml) in order to ensure as far as possible linear kinetic conditions in the experiment. Seven samples of the incubation solution are taken in a fixed time pattern for the […] analysis in order to determine the half-life (i.e. the degradation) of the compound in each case. Various clearance parameters (CL) and Fmax values are calculated from this half-life (see below).
The Cl and Fmax values represent a measure of the phase 1 and phase 2 metabolism of the compounds in the hepatocytes. In order to minimize the influence of the organic solvent on the enzymes in the incubation mixtures, this concentration is generally limited to 1% (acetonitrile) or 0.1% (DMSO).
A cell count for hepatocytes in the liver of 1.1*10^8 cells/g of liver is used for calculation for all species and breeds.
The calculated parameters and their meaning are:
Representative values for the compounds according to the invention from this assay after incubation of the compounds with rat hepatocytes are shown in Table B below: […]

Chain of human neutrophil elastase (HNE) (P08246 30-267): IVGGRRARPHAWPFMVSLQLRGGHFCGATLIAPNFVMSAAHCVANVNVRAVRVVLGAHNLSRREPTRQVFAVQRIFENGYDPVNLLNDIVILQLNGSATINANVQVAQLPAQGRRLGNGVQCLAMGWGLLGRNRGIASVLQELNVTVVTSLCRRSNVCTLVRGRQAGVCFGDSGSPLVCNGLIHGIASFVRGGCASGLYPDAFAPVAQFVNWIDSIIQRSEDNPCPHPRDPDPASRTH

Broadly, the IC50 is the point on the concentration scale where inhibition reaches its midpoint. A higher IC50 goes with lower potency. In data set [1], `[C-]#[N+]C1=C(C)N(c2cccc(C(F)(F)F)c2)C(=O)N[C@@H]1c1ccc(C#N)cc1[S@+](C)[O-]` (single isomer, unassigned; diastereomer 1) [Example 43 (Diastereomer 1)] displayed an IC50 of 300 pM. In the data set with rat hepatocytes, the “CLblood, calculated blood clearance (well stirred model)” value (“CLblood, calculated blood clearance” for short) is 21.7 mL/min/kg and the “Fmax, maximum possible bioavailability after oral administration (well-stirred)” value (from here on “Fmax, maximum possible bioavailability”) is 69%.

For the compound `CC1=C(C#N)[C@@H](c2ccc(C#N)cc2S(C)(=O)=O)N(C(=O)NCCO)C(=O)N1c1cccc(C(F)(F)F)c1` [Example 10, (6S)-5-Cyano-6-[4-cyano-2-(methylsulfonyl)phenyl]-N-(2-hydroxyethyl)-4-methyl-2-oxo-3-[3-(trifluoromethyl)phenyl]-3,6-dihydropyrimidine-1(2H)-carboxamide], in data set [1], the IC50 is < 300 pM. Moreover, in the data set on rat hepatocytes, the “CLblood, calculated blood clearance” value was 25 mL/min/kg and the “Fmax, maximum possible bioavailability” value turned out to be 65%.

For `CC1=C(C#N)[C@@H](c2ccc(C#N)cc2S(C)(=O)=O)N(C(=O)NN(CCO)CCO)C(=O)N1c1cccc(C(F)(F)F)c1` [Example 12, (6S)-5-Cyano-6-[4-cyano-2-(methylsulfonyl)phenyl]-N′,N′-bis(2-hydroxyethyl)-4-methyl-2-oxo-3-[3-(trifluoromethyl)phenyl]-3,6-dihydropyrimidine-1(2H)-carbohydrazide], the IC50 in data set [1] is < 300 pM. In the data set with rat hepatocytes, the “CLblood, calculated blood clearance” value was 28.3 mL/min/kg and the “Fmax, maximum possible bioavailability” value was 59%.

In data set [1], `CC1=C(C#N)[C@@H](c2ccc(C#N)cc2S(C)(=O)=O)N(C(=O)N2CCN(CCO)CC2)C(=O)N1c1cccc(C(F)(F)F)c1` [Example 20, (4S)-4-[4-Cyano-2-(methylsulfonyl)phenyl]-3-{[4-(2-hydroxyethyl)piperazin-1-yl]carbonyl}-6-methyl-2-oxo-1-[3-(trifluoromethyl)phenyl]-1,2,3,4-tetrahydropyrimidine-5-carbonitrile] showed an IC50 of 1900 pM.

As for `CC1=C(C#N)[C@@H](c2ccc(C#N)cc2S(C)(=O)=O)N(CC(N)=O)C(=O)N1c1cccc(C(F)(F)F)c1` [Example 22, 2-[(6S)-5-Cyano-6-[4-cyano-2-(methylsulfonyl)phenyl]-4-methyl-2-oxo-3-[3-(trifluoromethyl)phenyl]-3,6-dihydropyrimidin-1(2H)-yl]acetamide], the IC50 in data set [1] was determined as 450 pM. In the data set on rat hepatocytes, the “CLblood, calculated blood clearance” value was 3.3 mL/min/kg and the “Fmax, maximum possible bioavailability” value is 95%.

As for `CC1=C(C#N)[C@@H](c2ccc(C#N)cc2S(C)(=O)=O)N(S(C)(=O)=O)C(=O)N1c1cccc(C(F)(F)F)c1` [Example 27, (4S)-4-[4-Cyano-2-(methylsulfonyl)phenyl]-6-methyl-3-(methylsulfonyl)-2-oxo-1-[3-(trifluoromethyl)phenyl]-1,2,3,4-tetrahydropyrimidine-5-carbonitrile], the IC50 in data set [1] is < 300 pM. Moreover, in the data set with rat hepatocytes, the “CLblood, calculated blood clearance” value was 6.7 mL/min/kg and the “Fmax, maximum possible bioavailability” value was found to be 91%.

Regarding `CC1=C(C#N)[C@@H](c2ccc(C#N)cc2S(C)(=O)=O)N(S(=O)(=O)C2CC2)C(=O)N1c1cccc(C(F)(F)F)c1` [Example 32, (4S)-4-[4-Cyano-2-(methylsulfonyl)phenyl]-6-methyl-3-(cyclopropylsulfonyl)-2-oxo-1-[3-(trifluoromethyl)phenyl]-1,2,3,4-tetrahydropyrimidine-5-carbonitrile], in data set [1], the IC50 was < 300 pM. Further, in the data set on rat hepatocytes, the “CLblood, calculated blood clearance” value was 1.7 mL/min/kg and the “Fmax, maximum possible bioavailability” value was 97%.

Consider `CN1CC2=C(C1=O)[C@@H](c1ccc(C#N)cc1S(C)(=O)=O)N(S(C)(=O)=O)C(=O)N2c1cccc(C(F)(F)F)c1` [Example 36, 4-{(4S)-6-Methyl-3-(methylsulfonyl)-2,5-dioxo-1-[3-(trifluoromethyl)phenyl]-2,3,4,5,6,7-hexahydro-1H-pyrrolo[3,4-d]pyrimidin-4-yl}-3-(methylsulfonyl)benzonitrile], for which, in data set [1], the IC50 is < 300 pM. Further, in the data set on rat hepatocytes, the “CLblood, calculated blood clearance” value is 6.7 mL/min/kg and the “Fmax, maximum possible bioavailability” value is listed as 89%.

Turning to `CSc1cc(C#N)ccc1[C@H]1NC(=O)N(c2cccc(C(F)(F)F)c2)C(C)=C1C#N` [Example 41, (4S)-4-[4-Cyano-2-(methylsulfanyl)phenyl]-6-methyl-2-oxo-1-[3-(trifluoromethyl)phenyl]-1,2,3,4-tetrahydropyrimidine-5-carbonitrile], in data set [1], the IC50 was < 300 pM.

For `CC1=C(C#N)[C@@H](c2ccc(C#N)cc2S(C)(=O)=O)N(C(=O)N2CC(O)C2)C(=O)N1c1cccc(C(F)(F)F)c1` [Example 51, (4S)-4-[4-Cyano-2-(methylsulfonyl)phenyl]-3-[(3-hydroxyazetidin-1-yl)carbonyl]-6-methyl-2-oxo-1-[3-(trifluoromethyl)phenyl]-1,2,3,4-tetrahydropyrimidine-5-carbonitrile], in data set [1], the IC50 was < 300 pM.

`CC1=C(C#N)[C@@H](c2ccc(C#N)cc2S(C)(=O)=O)N(C(=O)N2CCC[C@@H](N)C2)C(=O)N1c1cccc(C(F)(F)F)c1` [Example 55, (4S)-3-[(3R)-3-Aminopiperidin-1-yl]carbonyl-4-[4-cyano-2-(methylsulfonyl)phenyl]-6-methyl-2-oxo-1-[3-(trifluoromethyl)phenyl]-1,2,3,4-tetrahydropyrimidine-5-carbonitrile]: in data set [1], the IC50 is < 300 pM.

In turn, `CC1=C(C#N)[C@@H](c2ccc(C#N)cc2S(C)(=O)=O)N(C(=O)N2CCN(c3ccccn3)CC2)C(=O)N1c1cccc(C(F)(F)F)c1` [Example 69] gave an IC50 in data set [1] of 900 pM. That is a sub-nanomolar value.

In the case of `CC1=C(C#N)[C@@H](c2ccc(C#N)cc2S(C)(=O)=O)N(C(=O)N(CC(C)O)CC(C)O)C(=O)N1c1cccc(C(F)(F)F)c1` (stereo partly shown) [Example 80], the concentration for half-maximal inhibition (IC50) in data set [1] was < 300 pM.

Take `CC1=C(C#N)[C@@H](c2ccc(C#N)cc2S(C)(=O)=O)N(C(=O)NC(C)(C)CO)C(=O)N1c1cccc(C(F)(F)F)c1` [Example 85]: the 50% inhibitory concentration (IC50) in data set [1] is < 300 pM.

As for `CC1=C(C#N)[C@@H](c2ccc(C#N)cc2S(C)(=O)=O)N(S(=O)(=O)c2ccc(F)cc2)C(=O)N1c1cccc(C(F)(F)F)c1` [Example 91], in data set [1], the IC50 is < 300 pM. Besides, in the data set with rat hepatocytes, the “CLblood, calculated blood clearance” value is 12 mL/min/kg and the “Fmax, maximum possible bioavailability” value worked out at 83%.

On to `CC1=C(C#N)[C@@H](c2ccc(C#N)cc2S(C)(=O)=O)N(S(=O)(=O)c2cnn(C(F)F)c2C)C(=O)N1c1cccc(C(F)(F)F)c1` [Example 96], for which the IC50 in data set [1] was < 300 pM.

Turning to `CC1=C(C#N)[C@@H](c2ccc(C#N)cc2S(C)(=O)=O)N(S(=O)(=O)c2ccccc2C#N)C(=O)N1c1cccc(C(F)(F)F)c1` [Example 103], the IC50 in data set [1] is < 300 pM.

As for `CC1=C(C#N)[C@@H](c2ccc(C#N)cc2S(C)(=O)=O)N(CC#N)C(=O)N1c1cccc(C(F)(F)F)c1` [Example 116, (4S)-3-(Cyanomethyl)-4-[4-cyano-2-(methylsulfonyl)phenyl]-6-methyl-2-oxo-1-[3-(trifluoromethyl)phenyl]-1,2,3,4-tetrahydropyrimidine-5-carbonitrile], the IC50 in data set [1] is < 300 pM. In the data set with rat hepatocytes, the “CLblood, calculated blood clearance” value is 6.7 mL/min/kg and the “Fmax, maximum possible bioavailability” value is listed as 91%.

On to `CCS(=O)(=O)c1cc(C#N)ccc1[C@@H]1C(C#N)=C(C)N(c2cccc(C(F)(F)F)c2)C(=O)N1C` [Example 128, (4S)-4-[4-Cyano-2-(ethylsulfonyl)phenyl]-3,6-dimethyl-2-oxo-1-[3-(trifluoromethyl)phenyl]-1,2,3,4-tetrahydropyrimidine-5-carbonitrile], for which the IC50 in data set [1] is < 300 pM. Moreover, in the data set on rat hepatocytes, the “CLblood, calculated blood clearance” value is 15 mL/min/kg and the “Fmax, maximum possible bioavailability” value is 78%.

With `CC1=C(C#N)[C@@H](c2ccc(C#N)cc2S(=O)(=O)c2ccccc2)NC(=O)N1c1cccc(C(F)(F)F)c1` [Example 141, (4S)-4-{4-Cyano-2-[phenylsulfonyl]phenyl}-6-methyl-2-oxo-1-[3-(trifluoromethyl)phenyl]-1,2,3,4-tetrahydropyrimidine-5-carbonitrile], in data set [1], the IC50 is < 300 pM.

As for `CC1=C(C(=O)OCCO)[C@@H](c2ccc(C#N)cc2S(C)(=O)=O)N(S(C)(=O)=O)C(=O)N1c1cccc(C(F)(F)F)c1` [Example 144, 2-Hydroxyethyl (4S)-4-[4-cyano-2-(methylsulfonyl)phenyl]-6-methyl-3-(methylsulfonyl)-2-oxo-1-[3-(trifluoromethyl)phenyl]-1,2,3,4-tetrahydropyrimidine-5-carboxylate], the IC50 in data set [1] is < 300 pM. In the data set with rat hepatocytes, the “CLblood, calculated blood clearance” value is 20 mL/min/kg and the “Fmax, maximum possible bioavailability” value is reported as 72%.
